{"source": "patent US8008333B2", "about": "“Single dose aromatase inhibitor for treating infertility” (Ares Trading S.A., priority 2001, dated 2011)", "key": {"[1]": {"system": "endometrium of normal women", "conditions": "reduction in glandular density, increase in vacuolated cells; cited from earlier work"}, "[2]": {"system": "infertile patients (PCOS, unexplained infertility)", "from_the_text": "HCG 10,000 IU was given to trigger ovulation. Follicular development was monitored by transvaginal ultrasound and hormonal assays of estrogen and LH."}, "[3]": {"system": "ovulatory women", "conditions": "ovulatory group, one patient; cited from earlier work"}, "[4]": {"system": "ovulatory women with unexplained infertility and anovulatory women with PCOS", "test": "letrozole in conjunction with FSH for controlled ovarian super ovulation", "assay_type": "in vivo, human"}, "[5]": {"system": "low responders during ovarian stimulation", "test": "letrozole with FSH stimulation in low responders", "assay_type": "in vivo, human"}, "[6]": {"system": "women with PCOS", "conditions": "PCOS group, cited from earlier work"}, "[7]": {"conditions": "in vivo; cited from earlier work"}}, "note": "Where a name gives a salt, the structure may show the parent alone. Read-outs that look alike come from different tables or passages of the source."}
{"compound": "CCN(CC)CCOc1ccc(C(=C(Cl)c2ccccc2)c2ccccc2)cc1", "note": "[CC, clomiphene citrate]", "values": [{"measurement": "effect on the endometrium", "setting": "[1]", "value": "deleterious effect on the endometrium"}]}
{"compound": "N#Cc1ccc(C(c2ccc(C#N)cc2)n2cncn2)cc1", "note": "[letrozole]", "values": [{"measurement": "Endometrial thickness on hCG day", "setting": "[2]; Letrozole 5 days cycle", "value": "0.9 (0.2) cm"}, {"measurement": "Estradiol on hCG day", "setting": "[2]; Letrozole 5 days cycle", "value": "919 (782) pmol/L"}, {"measurement": "Estradiol/mature follicle", "setting": "[2]; Letrozole 5 days cycle", "value": "462 (257) pmol/L"}, {"measurement": "Follicles >1.5 cm", "setting": "[2]; Letrozole 5 days cycle", "value": "1.9 (0.2)"}, {"measurement": "LH", "setting": "[2]; Letrozole 5 days cycle", "value": "18.2 (16.2) IU/L"}, {"measurement": "Endometrial thickness on hCG day", "setting": "[2]; Letrozole single-dose cycles", "value": "0.9 (0.11) cm"}, {"measurement": "Estradiol on hCG day", "setting": "[2]; Letrozole single-dose cycles", "value": "831 (359) pmol/L"}, {"measurement": "Estradiol/mature follicle", "setting": "[2]; Letrozole single-dose cycles", "value": "390 (74) pmol/L"}, {"measurement": "Follicles >1.5 cm", "setting": "[2]; Letrozole single-dose cycles", "value": "2.29 (1.3)"}, {"measurement": "LH", "setting": "[2]; Letrozole single-dose cycles", "value": "19.1 (12.7) IU/L"}, {"measurement": "ovulation", "setting": "[2]; single 20 mg dose on day 3, out of the 9 single-dose treatment cycles", "value": 8, "unit": "cycles"}, {"measurement": "pregnancy achieved", "setting": "[2]; single 20 mg dose on day 3, seven patients", "value": "one"}, {"measurement": "characteristics of the single dose treatment cycles versus the 5-day treatment cycles", "setting": "[2]; single 20 mg dose vs […] for 5 days", "value": "no significant difference"}, {"measurement": "pregnancy", "setting": "[3]", "value": 10, "unit": "%"}, {"measurement": "FSH dose required for achievement of adequate ovarian super ovulation", "setting": "[4]", "value": "significantly lower"}, {"measurement": "ovarian response to FSH stimulation", "setting": "[5]", "value": "improvement"}, {"measurement": "pregnancy", "setting": "[6]; 3 patients", "value": 25, "unit": "%"}, {"measurement": "ovulation", "setting": "[6]; 9 of 12 cycles", "value": 75, "unit": "%"}, {"measurement": "half-life", "setting": "[7]", "value": "around two"}]}
